In US11505543B2, “4-oxo-3,4-dihydroquinazoline compounds as inhibitors of human immunodeficiency virus replication” (VIIV HEALTHCARE UK (NO.5) LIMITED, priority 2018, dated 2022):

Key:
[1] = system: recombinant NL4-3 virus (nef section replaced with Renilla luciferase gene) in MT-2 cells; assay: HIV cell culture assay (antiviral activity, luciferase readout); assay type: cell-based; conditions: serial dilutions of compound
Outline: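 Test compound in serial dilution was present while MT-2 cells were infected for 4–5 days with recombinant NL4-3 virus made in 293T cells. Antiviral activity was quantified as Renilla luciferase activity, read with a live-cell substrate. EC50 came from the median-effect equation.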

[2] = Compound cytotoxicity, XTT-based colorimetric assay; assay type: cell-based; conditions: human, uninfected MT2 cells, day 4, XTT
Outline: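 Run under the antiviral-assay protocol but without virus. Viability was read on day 4 and CC50 values were derived from the readout.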

[3] = Renilla, NL43, MT-2 cells infected for 4-5 days with recombinant NL4-3 Renilla luciferase virus

| Compound | EC50 [1, 3] [nM] | CC50 at 4 day [2] [nM] | EC50 ([1]; MT-2 cells infected for 4-5 days with recombinant NL4-3 Renilla luciferase virus) [nM] |
| --- | --- | --- | --- |
| Cc1cc(F)ccc1-c1ccc2c(=O)n(-c3ccc(S(=O)(=O)N4CCOCC4)cc3)c([C@H](Cc3cc(F)cc(F)c3)NC(=O)Cn3ccc(C4CC4)n3)nc2c1 [Example 102, (S)-2-(3-cyclopropyl-1H-pyrazol-1-yl)-N-(2-(3,5-difluorophenyl)-1-(7-(4-fluoro-2-methylphenyl)-3-(4-(morpholinosulfonyl)phenyl)-4-oxo-3,4-dihydroquinazolin-2-yl)ethyl)acetamide] | 48 | > 1000 | – |
| CC(C)S(=O)(=O)c1cccc(-c2ccc3c(=O)n(-c4ccc(Cl)c5c(NS(C)(=O)=O)nn(C)c45)c([C@H](Cc4cc(F)cc(F)c4)NC(=O)Cn4nc(C(F)F)c5c4C(F)(F)[C@@H]4C[C@H]54)nc3c2)c1 (atropisomer, axis not shown; (aR)) [Example 123, N-((S)-1-(3-(4-chloro-1-methyl-3-(methylsulfonamido)-1H-indazol-7-yl)-7-(3-(isopropylsulfonyl)phenyl)-4-oxo-3,4-dihydroquinazolin-2-yl)-2-(3,5-difluorophenyl)ethyl)-2-((3bS,4aR)-3-(difluoromethyl)-5,5-difluoro-3b,4,4a,5-tetrahydro-1H-cyclopropa[3,4]cyclopenta[1,2-c]pyrazol-1-yl)acetamide] | 0.15 | > 500 | – |
| CS(=O)(=O)Nc1nn(CC(F)(F)F)c2c(-n3c([C@H](Cc4cc(F)cc(F)c4)NC(=O)Cn4nc(C(F)F)c5c4C(F)(F)[C@@H]4C[C@H]54)nc4cc(-c5ncccn5)ccc4c3=O)ccc(Cl)c12 [Example 163, N-((S)-1-(3-(4-chloro-3-(methylsulfonamido)-1-(2,2,2-trifluoroethyl)-1H-indazol-7-yl)-4-oxo-7-(pyrimidin-2-yl)-3,4-dihydroquinazolin-2-yl)-2-(3,5-difluorophenyl)ethyl)-2-((3bS,4aR)-3-(difluoromethyl)-5,5-difluoro-3b,4,4a,5-tetrahydro-1H-cyclopropa[3,4]cyclopenta[1,2-c]pyrazol-1-yl)acetamide] | 0.046 | > 500 | – |
| O=C(Cn1nc(C(F)F)cc1C(F)F)N[C@@H](Cc1cc(F)cc(F)c1)c1nc2cc(-c3ncccn3)ccc2c(=O)n1-c1ccc(Cl)c2c(NS(=O)(=O)C3CC3)nn(CC(F)F)c12 [Example 189, (S)-2-(3,5-bis(difluoromethyl)-1H-pyrazol-1-yl)-N-(1-(3-(4-chloro-3-(cyclopropanesulfonamido)-1-(2,2-difluoroethyl)-1H-indazol-7-yl)-4-oxo-7-(pyrimidin-2-yl)-3,4-dihydroquinazolin-2-yl)-2-(3,5-difluorophenyl)ethyl)acetamide] | 1.3 | > 500 | – |
| COc1cccc(OC)c1-c1ccc2c(=O)n(-c3ccc(Cl)c4c(NS(C)(=O)=O)nn(C)c34)c([C@H](Cc3cc(F)cc(F)c3)NC(=O)Cn3nc(C(F)F)c4c3C(F)(F)[C@@H]3C[C@H]43)nc2c1 (atropisomer, axis not shown; (aR)) [Example 86, N-((S)-1-(3-(4-chloro-1-methyl-3-(methylsulfonamido)-1H-indazol-7-yl)-7-(2,6-dimethoxyphenyl)-4-oxo-3,4-dihydroquinazolin-2-yl)-2-(3,5-difluorophenyl)ethyl)-2-((3bS,4aR)-3-(difluoromethyl)-5,5-difluoro-3b,4,4a,5-tetrahydro-1H-cyclopropa[3,4]cyclopenta[1,2-c]pyrazol-1-yl)acetamide] | 0.5 | > 1000 | – |
| Cc1cc(F)ccc1-c1ccc2c(=O)n(-c3ccc(S(=O)(=O)N4CCOCC4)cc3)c([C@H](Cc3cc(F)cc(F)c3)NC(=O)Cn3nc(C(F)F)c4c3C(F)(F)[C@@H]3C[C@H]43)nc2c1 [Example 150, 2-((3bS,4aR)-3-(difluoromethyl)-5,5-difluoro-3b,4,4a,5-tetrahydro-1H-cyclopropa[3,4]cyclopenta[1,2-c]pyrazol-1-yl)-N-((S)-2-(3,5-difluorophenyl)-1-(7-(4-fluoro-2-methylphenyl)-3-(4-(morpholinosulfonyl)phenyl)-4-oxo-3,4-dihydroquinazolin-2-yl)ethyl)acetamide] | 11 | > 500 | – |
| CCCS(=O)(=O)c1cccc(-c2ccc3c(=O)n(-c4ccc(Cl)c5c(NS(C)(=O)=O)nn(C)c45)c([C@H](Cc4cc(F)cc(F)c4)NC(=O)Cn4nc(C(F)F)c5c4C(F)(F)[C@@H]4C[C@H]54)nc3c2)c1 (atropisomer, axis not shown; (aR)) [Example 122, N-((S)-1-(3-(4-chloro-1-methyl-3-(methylsulfonamido)-1H-indazol-7-yl)-4-oxo-7-(3-(propylsulfonyl)phenyl)-3,4-dihydroquinazolin-2-yl)-2-(3,5-difluorophenyl)ethyl)-2-((3bS,4aR)-3-(difluoromethyl)-5,5-difluoro-3b,4,4a,5-tetrahydro-1H-cyclopropa[3,4]cyclopenta[1,2-c]pyrazol-1-yl)acetamide] | 0.17 | > 500 | – |
| CC(C(=O)N[C@@H](Cc1cc(F)cc(F)c1)c1nc2cc(-c3ccccc3F)ccc2c(=O)n1-c1ccc(Cl)c2c(NS(=O)(=O)C3CC3)nn(CC(F)F)c12)n1ccc(C2CC2)n1 (single isomer, unassigned) [Example 133] | – | > 500 | 1.6 |
| Cn1nc(NS(C)(=O)=O)c2c(Cl)ccc(-n3c([C@H](Cc4cc(F)cc(F)c4)NC(=O)Cn4nc(C(F)F)c5c4C(F)(F)[C@@H]4C[C@H]54)nc4cc(-c5ccccc5-c5ccccc5)ccc4c3=O)c21 (atropisomer, axis not shown; (aR)) [Example 9, N-((S)-1-(7-([1,1′-biphenyl]-2-yl)-3-(4-chloro-1-methyl-3-(methylsulfonamido)-1H-indazol-7-yl)-4-oxo-3,4-dihydroquinazolin-2-yl)-2-(3,5-difluorophenyl)ethyl)-2-((3bS,4aR)-3-(difluoromethyl)-5,5-difluoro-3b,4,4a,5-tetrahydro-1H-cyclopropa[3,4]cyclopenta[1,2-c]pyrazol-1-yl)acetamide] | 4.6 | > 1000 | – |
| COc1ccc(-c2ccc3c(=O)n(-c4ccc(S(=O)(=O)N5CCOCC5)cc4)c([C@H](Cc4cc(F)cc(F)c4)NC(=O)Cn4ccc(C5CC5)n4)nc3c2)cn1 [Example 32, (S)-2-(3-cyclopropyl-1H-pyrazol-1-yl)-N-(2-(3,5-difluorophenyl)-1-(7-(6-methoxypyridin-3-yl)-3-(4-(morpholinosulfonyl)phenyl)-4-oxo-3,4-dihydroquinazolin-2-yl)ethyl)acetamide] | 5.8 | > 1000 | – |
| COc1cccc(-c2ccc3c(=O)n(-c4ccc(S(=O)(=O)N5CCOCC5)cc4)c([C@H](Cc4cc(F)cc(F)c4)NC(=O)Cn4ccc(C5CC5)n4)nc3c2)n1 [Example 55, (S)-2-(3-cyclopropyl-1H-pyrazol-1-yl)-N-(2-(3,5-difluorophenyl)-1-(7-(6-methoxypyridin-2-yl)-3-(4-(morpholinosulfonyl)phenyl)-4-oxo-3,4-dihydroquinazolin-2-yl)ethyl)acetamide] | 8.7 | > 1000 | – |
